# Earlier results as cited in patent publication US6761879B1, “Titanium derived compounds, preparation and use thereof” (Sanofi-Synthelabo, priority 1999, dated 2004).
# Key:
# [1] = in particular in aqueous solution
# [2] = known from prior art
smiles,measurement,setting,value
[F][Ti]([F])([F])[F] [titanium tetrafluoride],stability,[1],relatively unstable
same,pH in aqueous solution,,about 1.5
same,formation of an amorphous protective layer (glaze) at the surface of the enamel of the tooth,[2],forming an amorphous protective layer
